The text below walks through data of US7855232B2, “Organoselenium compound for cancer chemoprevention” (LKT Laboratories, Inc., priority 2001, dated 2010).

This assay relates to GSH. Description: Glutathione (GSH) concentration in tissues of treated mice, HPLC. Type of assay: in vivo, Female A/J mice. Conditions: liver; for Ratio Test/con (GSH): gavage; for GSH conc.: gavage in corn oil. The method, then:
GSH was quantitated by modification of the procedure Siller-Cepeda et al. Plant Cell Physiol. 32:1179-1185 (1991). Aliquots of tissue homogenates were mixed with equal volumes of 20% PCA containing 2 mM BPDS. Vortex, centrifuge at 7800×g for 15 minutes at 4° C. and 250 μl supernatant transferred into a microfuge tube containing 25 μl of γ-glu-glu as internal standard. The samples were carboxymethylated with 25 μl of 100 mM iodoacetic acid dissolved in 0.2 mM m-cresol purple sodium salt solution. The pH of the solution was adjusted to 9-10 by adding 350 μl of KOH (2M)-KHCO3 (2.4 M) mixture and incubated in the dark for 15 minutes. After carboxymethylation, the samples were derivatized with 500 μl of 1% dinitrofluorobenzene (DNFB) and kept in the dark at 4° C. overnight. The samples were centrifuged at 13,000×g for 15 minutes, filtered through 0.2 μm filter, and were analyzed with a SHIMADZU two-pump gradient HPLC system. Samples were injected by a SHIMADZU SIL-10AV Autoinjector onto a Varian 3-aminopropyl MICROSORB-MV column (4.6×250 mm) operated at ambient temperature with a flow rate of 1 ml/min. Absorbance of the dinitrophenyl derivatives was monitored at 365 nm. The amount of GSH was calculated from a standard curve using γ-glu-glu as internal standard.

With `N#C[Se]Cc1ccc(C[Se]C#N)s1` [(2) TDMSC, thienyl-2,5-di-methylene selenocyanate], under “dose 0.02 mmol/Kg body weight”, the “Ratio Test/con (GSH)” value was found to be 1.28 and the GSH conc. is recorded as 4.91 ± 1.16 μmol/gm tissue weight. Under “dose 0.04 mmol/Kg body weight”, the “Ratio Test/con (GSH)” value was found to be 1.20 and the GSH conc. is given as 4.60 ± 2.13 μmol/gm tissue weight.
